Data published in ChEMBL document CHEMBL3526086, “Identification of the oxidative and conjugative enzymes involved in the biotransformation of brivanib” (Drug Metab Dispos, 2012).

Tests used:
Assay type in all cases: ADME
[1] = tested on: Liver microsome; assay: Drug metabolism in human liver microsomes assessed as (R)-1-(4-(4-fluoro-2-(hydroxymethyl)-1H-indol-5-yloxy)-5-methylpyrrolo[1,2-f][1,2,4]triazin-6-yloxy)propan-2-ol formation at 2 and 20 uM for 30 mins by LC/MS analysis in presence of antibody for CYP3A4/5; conditions: 0.5 h
[2] = molecular target: T1, Cytochrome P450 2C8 (Homo sapiens, UniProt P10632); assay: Drug metabolism in human liver microsomes assessed as 3 uM montekulast-mediated inhibition of CYP2C8-mediated (R)-1-(4-(4-fluoro-2-(hydroxymethyl)-1H-indol-5-yloxy)-5-methylpyrrolo[1,2-f][1,2,4]triazin-6-yloxy)propan-2-ol formation at 2 and 20 uM for 30 mins by LC/MS analysis; conditions: 0.5 h
T1 sequence (P10632 whole entry): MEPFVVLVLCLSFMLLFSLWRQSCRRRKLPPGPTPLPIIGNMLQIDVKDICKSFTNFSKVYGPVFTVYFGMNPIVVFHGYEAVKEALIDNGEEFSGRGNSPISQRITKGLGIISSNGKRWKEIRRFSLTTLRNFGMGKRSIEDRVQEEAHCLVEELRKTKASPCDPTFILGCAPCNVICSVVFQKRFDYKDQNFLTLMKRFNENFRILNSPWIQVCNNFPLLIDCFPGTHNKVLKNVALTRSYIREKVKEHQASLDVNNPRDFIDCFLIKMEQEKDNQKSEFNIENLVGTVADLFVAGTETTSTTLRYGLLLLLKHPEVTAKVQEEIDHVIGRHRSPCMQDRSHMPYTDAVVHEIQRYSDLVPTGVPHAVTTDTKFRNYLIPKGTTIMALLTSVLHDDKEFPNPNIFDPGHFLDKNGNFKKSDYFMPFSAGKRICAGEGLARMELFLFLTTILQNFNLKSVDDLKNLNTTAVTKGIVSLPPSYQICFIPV

[3] = molecular target: Cytochrome P450 1A1 (Homo sapiens, UniProt P04798); assay: Drug metabolism assessed as human CYP1A1-mediated (R)-1-(4-(4-fluoro-2-(hydroxymethyl)-1H-indol-5-yloxy)-5-methylpyrrolo[1,2-f][1,2,4]triazin-6-yloxy)propan-2-ol formation at 2 and 20 uM for 20 mins by LC/MS analysis in presence of NADPH; conditions: recombinant enzyme
Sequence of Cytochrome P450 1A1 (P04798 whole entry): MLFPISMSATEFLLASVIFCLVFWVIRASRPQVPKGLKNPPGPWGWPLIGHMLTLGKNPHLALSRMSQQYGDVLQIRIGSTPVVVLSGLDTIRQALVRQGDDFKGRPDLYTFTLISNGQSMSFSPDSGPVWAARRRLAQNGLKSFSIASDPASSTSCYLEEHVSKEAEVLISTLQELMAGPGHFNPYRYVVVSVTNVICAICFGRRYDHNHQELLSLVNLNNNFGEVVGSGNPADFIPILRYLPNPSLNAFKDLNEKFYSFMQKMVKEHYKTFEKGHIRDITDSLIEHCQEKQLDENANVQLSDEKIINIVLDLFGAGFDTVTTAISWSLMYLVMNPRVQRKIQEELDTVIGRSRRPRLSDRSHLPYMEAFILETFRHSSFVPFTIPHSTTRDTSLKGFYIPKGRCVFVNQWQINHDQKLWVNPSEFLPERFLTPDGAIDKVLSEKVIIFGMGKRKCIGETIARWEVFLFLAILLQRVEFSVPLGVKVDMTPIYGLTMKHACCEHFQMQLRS

- Drug metabolism [1]: metabolite_not_detected
- Drug metabolism [2]: metabolite_detected
- Drug metabolism [3]: metabolite_detected
Structure (SMILES): Cc1cc2c(F)c(Oc3ncnn4cc(OC[C@@H](C)O)c(C)c34)ccc2[nH]1 [BRIVANIB]
